Calls of active or inactive are those of the source. The calls are words filed in the database; no cut-off is given here.

The nature of data set [1]: Cytotoxicity against mouse RAW264.7 cells assessed as survival rate at 20 uM incubated for 24 hrs by CCK-8 assay relative to control (reference value: 100 %). Format: toxicity, cell-based. Particulars: read-out: Survival. Background: Formazan colour is commonly taken as a measure of viable cells.
The test system of data set [2] is RAW264.7. Briefly: Antiinflammatory activity in LPS-induced mouse RAW264.7 cells assessed as inhibition of NO release at 20 uM preincubated for 4 hrs followed by LPS addition for 24 hrs by Griess reagent based assay relative to control (reference value: 100 %). Format: functional. On the set-up: scale not given: the % may be the effect or the level left. The settings on record: time 28 hrs.

Data set [3] concerns RAW264.7. In words: Antiinflammatory activity in LPS-induced mouse RAW264.7 cells assessed as inhibition of NO release preincubated for 4 hrs followed by LPS addition for 24 hrs by Griess reagent based assay. Format: functional, cell-based. The settings on record: dose 2.5-20 µM, time 28.0 hrs. Background: The Griess reaction detects nitrite, a stable product of nitric oxide.

The subject of data set [4] is Mus musculus. In words: Antiinflammatory activity against carrageenan-induced paw edema in ICR mouse assessed as reduction in paw thickness at 20 mg/kg, ip measured at 60 to 240 mins. Format: functional, organism-based. Particulars: time 60-240 min.
Data set [5] relates to Mus musculus. Briefly: Antiinflammatory activity against carrageenan-induced paw edema in ICR mouse assessed as inhibition of paw swelling at 20 mg/kg, ip measured after 120 min. Format: functional, organism-based.
Data set [6] has as its system RAW264.7. Briefly: Antiinflammatory activity in LPS-induced mouse RAW264.7 cells assessed as inhibition of IL-1beta secretion at 2.5 to 20 uM preincubated for 1 hr followed by LPS addition for 24 hrs by ELISA method. Particulars: dose 2.5-20 µM, time 25.0 hrs. Format: functional, cell-based. A general note: In an ELISA, binding on a coated surface is turned into a signal by an enzyme label.

Data set [7] concerns RAW264.7. In words: Antiinflammatory activity in LPS-induced mouse RAW264.7 cells assessed as inhibition of IL-6 secretion at 2.5 to 20 uM preincubated for 1 hr followed by LPS addition for 24 hrs by ELISA method. Particulars: dose 2.5-20 µM, time 25.0 hrs. Format: functional, cell-based.
Data set [8] relates to RAW264.7. Briefly: Antiinflammatory activity in LPS-induced mouse RAW264.7 cells assessed as inhibition of TNFalpha secretion at 2.5 to 20 uM preincubated for 1 hr followed by LPS addition for 24 hrs by ELISA method. Format: functional, cell-based. The settings on record: dose 2.5-20 µM, time 25.0 hrs.
Data set [9] deals with RAW264.7. Briefly: Antiinflammatory activity in LPS-induced mouse RAW264.7 cells assessed as reduction in IL-1beta mRNA level preincubated for 1 hr followed by LPS addition for 24 hrs by RT-qPCR analysis. Format: functional, cell-based. The settings on record: dose 10-20 µM, time 25.0 hrs.
In data set [10] the test system is RAW264.7. Briefly: Antiinflammatory activity in LPS-induced mouse RAW264.7 cells assessed as reduction in IL-6 mRNA level preincubated for 1 hr followed by LPS addition for 24 hrs by RT-qPCR analysis. Format: functional, cell-based. The settings on record: dose 10-20 µM, time 25.0 hrs.
Data set [11] concerns RAW264.7. Briefly: Antiinflammatory activity in LPS-induced mouse RAW264.7 cells assessed as reduction in TNFalpha mRNA level incubated for 1 hr followed by LPS addition for 24 hrs by RT-qPCR analysis. Format: functional, cell-based. Particulars: dose 10-20 µM, time 25.0 hrs.
The subject of data set [12] is RAW264.7. In words: Inhibition of NF-kappaB signaling in LPS-induced mouse RAW264.7 cells assessed as reduction in IkBalpha degradation preincubated for 1 hr followed by LPS addition for 1 hr by Western blot analysis. Format: cell-based. Particulars: dose 10-20 µM, time 2.0 hrs.
The subject of data set [13] is RAW264.7. In words: Inhibition of NF-kB signaling in LPS-induced mouse RAW264.7 cells assessed as reduction in p65 phosphorylation preincubated for 1 hr followed by LPS addition for 1 hr by Western blot analysis. Format: cell-based. The settings on record: dose 10-20 µM, time 2.0 hrs.
Data set [14] has as its system RAW264.7. Briefly: Inhibition of NF-kB p65 nuclear translocation from cytoplasm to nucleus in mouse RAW264.7 cells at 20 uM preincubated for 1 hr followed by LPS addition for 4 hrs by immunofluorescence assay. Format: functional, cell-based. Particulars: time 5.0 hrs.
Data set [15] relates to Mus musculus. In words: Antiinflammatory activity against carrageenan-induced paw edema in ICR mouse assessed as reduction in paw thickness at 5 to 20 mg/kg, ip measured at 60 to 240 mins. The settings on record: dose 5-20 mg/kg, time 60-240 min. Format: functional, organism-based.
Data set [16] has as its system Mus musculus. Briefly: Antiinflammatory activity against carrageenan-induced paw edema in ip dosed ICR mouse assessed as reduction in IL-1beta level by ELISA method. Format: functional, organism-based. The settings on record: dose 5-20 mg/kg.
In data set [17] the test system is Mus musculus. Briefly: Antiinflammatory activity against carrageenan-induced paw edema in ip dosed ICR mouse assessed as reduction in IL-6 level by ELISA method. Format: functional, organism-based. Particulars: dose 5-20 mg/kg.
The test system of data set [18] is Mus musculus. In words: Antiinflammatory activity against carrageenan-induced paw edema in ip dosed ICR mouse assessed as reduction in TNF-alpha level by ELISA method. Format: functional, organism-based. The settings on record: dose 5-20 mg/kg.
For data set [19], the system named is Mus musculus. In words: Antiinflammatory activity against carrageenan-induced paw edema in ICR mouse assessed as inhibition of paw swelling at 5 to 20 mg/kg, ip measured after 120 min. Format: functional, organism-based. Particulars: dose 5-20 mg/kg.

As for `COc1cc(C[C@H](C(=O)NCc2ccncc2F)[C@@H](Cc2cc(OC)c(O)c(OC)c2)C(=O)NCc2ccncc2F)cc(OC)c1O`, the viability at 24 h, 20 µM in [1] worked out at 95.9%. The Activity in the data set on RAW264.7 [2] is on record as 67.9%.
The like results for `COc1cc(C[C@H](C(=O)NCc2ccc(S(C)(=O)=O)cc2)[C@@H](Cc2cc(OC)c(O)c(OC)c2)C(=O)NCc2ccc(S(C)(=O)=O)cc2)cc(OC)c1O` were, in that order, 70% and 63.1%.
For the compound `C[C@@H]1C[C@H]2[C@@H]3CCC4=CC(=O)C=C[C@]4(C)[C@@]3(F)[C@@H](O)C[C@]2(C)[C@@]1(O)C(=O)CO` [DEXAMETHASONE], the viability at 24 h, 20 µM in data set [1] was determined as 94.8%. The Activity with RAW264.7 [2] worked out at 45.9%.
`COc1cc(C[C@H](C(=O)NCc2cccc(F)c2)[C@@H](Cc2cc(OC)c(O)c(OC)c2)C(=O)NCc2cccc(F)c2)cc(OC)c1O`: the viability at 24 h, 20 µM in [1] worked out at 99.4%. For the same compound, the Activity with RAW264.7 [2] was 41.9%.
For `COc1cc(C[C@H](C(=O)NCc2cc(C)ccn2)[C@@H](Cc2cc(OC)c(O)c(OC)c2)C(=O)NCc2cc(C)ccn2)cc(OC)c1O`, in that order: 83% and 71.5%.
In the case of `COc1cc(C[C@H](C(=O)NCc2ccccc2F)[C@@H](Cc2cc(OC)c(O)c(OC)c2)C(=O)NCc2ccccc2F)cc(OC)c1O`, the viability at 24 h, 20 µM in [1] was found to be 105%. Further, the Activity in the data set on RAW264.7 [2] is given as 47.3%.
Take `COc1cc(C[C@H](C(=O)NCc2ccncc2)[C@@H](Cc2cc(OC)c(O)c(OC)c2)C(=O)NCc2ccncc2)cc(OC)c1O`: the viability at 24 h, 20 µM in data set [1] came out at 69.5%. For the same compound, in the data set on RAW264.7 [2], the Activity turned out to be 46.5%.
The like results for `COc1cc(CNC(=O)[C@@H](Cc2cc(OC)c(O)c(OC)c2)[C@@H](Cc2cc(OC)c(O)c(OC)c2)C(=O)NCc2cc(OC)cc(OC)c2)cc(OC)c1` were, in that order, 99.1% and 49.3%.
For `COc1cc(C[C@H](C(=O)NCc2cc(F)cc(F)c2)[C@@H](Cc2cc(OC)c(O)c(OC)c2)C(=O)NCc2cc(F)cc(F)c2)cc(OC)c1O`, in that order: 97.8% and 43.9%.
For `COc1cc(C[C@H](C(=O)NCc2ccccn2)[C@@H](Cc2cc(OC)c(O)c(OC)c2)C(=O)NCc2ccccn2)cc(OC)c1O`, in that order: 92.2% and 48.1%.
With `COc1cc(C[C@H](C(=O)NCc2ccc(F)cn2)[C@@H](Cc2cc(OC)c(O)c(OC)c2)C(=O)NCc2ccc(F)cn2)cc(OC)c1O`, the viability at 24 h, 20 µM in data set [1] was found to be 81.3%. Also, the Activity in the data set on RAW264.7 [2] is 47.1%.
On to `COc1cc(C[C@H](C(=O)NCc2ccccc2)[C@@H](Cc2cc(OC)c(O)c(OC)c2)C(=O)NCc2ccccc2)cc(OC)c1O`, for which the viability at 24 h, 20 µM in data set [1] was found to be 103%. In addition, the Activity in the data set with RAW264.7 [2] was determined as 42.6%.
As to `COc1cc(/C=C/C(=O)OC[C@H](Cc2cc(OC)c(O)c(OC)c2)[C@@H](COC(=O)/C=C/c2ccc(O)c(OC)c2)Cc2cc(OC)c(O)c(OC)c2)ccc1O`, the viability at 24 h, 20 µM in data set [1] amounted to 82.2%. Further, the Activity in the data set on RAW264.7 [2] came out at 29.5%. In addition, the inhibition entry in the data set on RAW264.7 [3] was “Dose-Dependent Effect”. The outcome in the data set with Mus musculus [4] was Active. In addition, the inhibition entry in the data set with Mus musculus [5] is “Active”.
With `COc1ccc(CNC(=O)[C@@H](Cc2cc(OC)c(O)c(OC)c2)[C@@H](Cc2cc(OC)c(O)c(OC)c2)C(=O)NCc2ccc(OC)cc2OC)c(OC)c1`, the viability at 24 h, 20 µM in data set [1] worked out at 98.4%. Further, in the data set with RAW264.7 [2], the Activity is 47.6%.
For `COc1cccc(CNC(=O)[C@@H](Cc2cc(OC)c(O)c(OC)c2)[C@@H](Cc2cc(OC)c(O)c(OC)c2)C(=O)NCc2cccc(OC)c2)c1`, in that order: 100% and 44.2%.
For `COc1cc(C[C@H](C(=O)NCc2cccc(C)n2)[C@@H](Cc2cc(OC)c(O)c(OC)c2)C(=O)NCc2cccc(C)n2)cc(OC)c1O`, in that order: 93.3% and 44.7%.
As to `COc1cc(C[C@H](C(=O)NCc2ccc(C(F)(F)F)cc2)[C@@H](Cc2cc(OC)c(O)c(OC)c2)C(=O)NCc2ccc(C(F)(F)F)cc2)cc(OC)c1O`, the viability at 24 h, 20 µM in [1] was 99.1%. Moreover, the Activity with RAW264.7 [2] was 31.1%; in the data set with RAW264.7 [3], “Dose-Dependent Effect”; in the data set on RAW264.7 [9] it was “Dose-Dependent Effect”; in the data set on RAW264.7 [10], “Dose-Dependent Effect”; with RAW264.7 [11] it was “Dose-Dependent Effect”; with Mus musculus [16], “Dose-Dependent Effect”. In addition, the Activity result in the data set with Mus musculus [17] and in the data set on Mus musculus [18] was “Dose-Dependent Effect” throughout. Moreover, the result with RAW264.7 [6], in the data set with RAW264.7 [7], in the data set on RAW264.7 [8] and in the data set on Mus musculus [15] was Active. Moreover, the inhibition result in the data set on RAW264.7 [12] and in the data set with RAW264.7 [13] was “Dose-Dependent Effect” throughout. Moreover, the inhibition entry with RAW264.7 [14] and in the data set with Mus musculus [19] was “Active” each time.
On to `COc1ccc(CNC(=O)[C@@H](Cc2cc(OC)c(O)c(OC)c2)[C@@H](Cc2cc(OC)c(O)c(OC)c2)C(=O)NCc2ccc(OC)cc2)cc1`, for which, in [1], the viability at 24 h, 20 µM is 99.9%. Further, the Activity in the data set with RAW264.7 [2] worked out at 45.9%.
`COc1cc(C[C@H](C(=O)NCc2ccc(F)cc2F)[C@@H](Cc2cc(OC)c(O)c(OC)c2)C(=O)NCc2ccc(F)cc2F)cc(OC)c1O`: in [1], the viability at 24 h, 20 µM is 97.5%. In the data set with RAW264.7 [2], the Activity amounted to 46.5%.
For `COc1cc(C[C@H](C(=O)NCc2cccnc2C(F)(F)F)[C@@H](Cc2cc(OC)c(O)c(OC)c2)C(=O)NCc2cccnc2C(F)(F)F)cc(OC)c1O`, in that order: 90.7% and 55.1%.
Turning to `COc1cc(C[C@H](C(=O)NCc2cccnc2OC)[C@@H](Cc2cc(OC)c(O)c(OC)c2)C(=O)NCc2cccnc2OC)cc(OC)c1O`, the viability at 24 h, 20 µM in data set [1] is 69.9%. In the data set on RAW264.7 [2], the Activity is recorded as 51.1%.
With `COc1cc(C[C@H](C(=O)NCc2ccc(F)cc2)[C@@H](Cc2cc(OC)c(O)c(OC)c2)C(=O)NCc2ccc(F)cc2)cc(OC)c1O`, the viability at 24 h, 20 µM in data set [1] was determined as 103%. Moreover, the Activity with RAW264.7 [2] was determined as 43.1%.
Turning to `COc1cc(C[C@H](C(=O)NCc2ccc(C)cc2)[C@@H](Cc2cc(OC)c(O)c(OC)c2)C(=O)NCc2ccc(C)cc2)cc(OC)c1O`, the viability at 24 h, 20 µM in data set [1] is 95.6%. Also, the Activity in the data set on RAW264.7 [2] stood at 47%.
The like results for `COc1cc(C[C@H](C(=O)NCc2ncccc2C)[C@@H](Cc2cc(OC)c(O)c(OC)c2)C(=O)NCc2ncccc2C)cc(OC)c1O` were, in that order, 85.1% and 66.3%.
For `COc1cc(CNC(=O)[C@@H](Cc2cc(OC)c(O)c(OC)c2)[C@@H](Cc2cc(OC)c(O)c(OC)c2)C(=O)NCc2ccc(O)c(OC)c2)ccc1O`, in that order: 96.6% and 49%.

These data come from ChEMBL document CHEMBL5532759, “Discovery of dibenzylbutane lignan LCA derivatives as potent anti-inflammatory agents” (RSC Med Chem, 2024).
